Assays:
[1] = system: N2a cells expressing APPswe/PS1 wt; experiment: Aβ secretion, metabolic labeling and anti-Aβ immunoprecipitation, SDS-PAGE/fluorography; assay type: cell-based, murine
From the text: (§1) Cells were then metabolically labeled for four hours, again in the absence or presence of autophagy inhibitors. The growth medium was collected and subjected to immunoprecipitation with an anti-Aβ monoclonal antibody that recognizes both Aβ1-40 and Aβ1-42. Labeled Aβ was resolved by SDS-PAGE and fluorography (FIG. 10A).

[2] = system: N2a cells expressing APPswe/PS1Δ9; experiment: as above; assay type: cell-based, murine
From the text: as §1

[3] = system: N2a cells expressing APPswe/PS1 wt; experiment: Secreted Aβ in conditioned medium by ELISA; assay type: cell-based, murine
Protocol: (§2) In a second set of experiments, N2a cells expressing APPswe/PS1 wt or APPswe/PS1Δ9 were incubated either in the presence or absence of 5 mM 3MA (FIG. 10B). Conditioned medium was collected and pooled from two plates and spun at 1000×g to remove cells and cellular debris. The amount of secreted Aβ was then determined using ELISA. In both APPswe/PS1 wt and APPswe/PS1 Δ9 N2A cells incubated in the presence of 3MA, there was a reduction of Aβ1-40 and Aβ1-42 in the conditioned medium (FIG. 10B). While the decrease was greatest in the N2A cells expressing mutant PS1, we found a significant decrease of approximately 20% or great for both Aβ species in both the wild-type and Δ9 PS1 expressing lines.
(§3) For the Aβ sandwich ELISA, Nunc-Immuno Plates (Nunc A/S, Roskilde, Denmark) were coated overnight using 4° C. using antibodies specific for Aβ40 or Aβ42 in 100 mM bicarbonate buffer, pH 9.6. Remaining protein binding sites were blocked by incubating with 1% Block Ace (Yukijirushi Milk, Sapporo Japan) in PBS for 4 hours at room temperature. 10% (w/v) homogenates were prepared from a hemibrain in 20 MM Tris, 250 mM sucrose, 1 mM EDTA, 1 mM EGTA, protease inhibitors, pH 7.4, and stored frozen at −70° C. Immediately prior to being loaded on the ELISA, 1 ml of the brain homogenate was extracted in diethylamine (Sigma, St. Lousi, Minn.) by adding an equal volume of 0.4% DEA in 100 mM NaCl, re-homogenized and centrifuged for 1 hour at 100,000×g. The supernatant was collected, neutralized with 0.1 volume 0.5 M Tris, pH 6.8, and loaded in duplicate wells both neat and diluted 1:2 in EC buffer (20 mM Na phosphate, 2 mM EDTA, 400 mM NaCl, 0.2% BSA, 0.4% Block Ace, 0.95% CHAPS). […] Alternatively, conditioned media collected from cells was loaded neat and 1:2. Aβ-40 and Aβ-42 peptide standards were purchased from American Peptide Co. (Sunnyvale, Calif.), stored at −70° C., and diluted in EC buffer immediately prior to use. ELISA plates were incubated overnight with 4° C. with samples and standards. Aβ was detected by incubating for 4 hours at room temperature with an HRP-conjugated anti-Aβ antibody in 20 mM Na phosphate, 2 mM EDTA, 400 mM Nacl, 1.0% BSA. ELISA plates were developed using a color reaction (ABTS Peroxide Substrate System, Kirkegaard & Perry, Gaithersburg, Md.) and the OD450 read.

[4] = system: N2a cells expressing APPswe/PS1Δ9; experiment: Secreted Aβ in conditioned medium by ELISA; assay type: cell-based, murine; settings: 5 mM 3MA, FIG. 10B
Protocol: as §2, §3

[5] = system: N2a cells expressing APPswe/PS1Δ9; experiment: Tau protein levels by Western blot; assay type: cell-based, murine; settings: for increase in tau protein levels: FIG. 10C; for tau protein levels (Western blot): figure legend FIG. 10C
Protocol: There are numerous assays for tau known in the art. For example, the processing of tau by immunocytochemistry and Western blot analysis is performed using an antibody that recognizes both phosphorylated and non-phosphorylated forms (Adamec et al., Brain Res. 757:93–101, 1997). Abnormal tau conformation and byperphosphorylated tau is examined using suitable monoclonal antibodies (e.g., MC1 (Jicha et al., J. Neurosci. Res. 48:128–132) and AT8 (Innogenetics, Gent, Belgium)). EM analysis can be performed to characterize cytoskeletal changes in neurons (Nixon, Bioessays 20:798–807, 1998).

[6] = system: primary cortical neurons from normal mouse embryos; experiment: Secreted Aβ by ELISA in primary cortical neuronal cultures; assay type: cell-based
Protocol: We have confirmed this effect of the autophagy inhibitor 3MA on Aβ production in primary cortical neuronal cultures derived from normal mouse embryos (FIG. 11). Following a media change, cultures were incubated in the presence or absence of 3MA for six hours. […] Dissected embryonic cortical tissue from Sprague-Dawley rat embryos (18d gestation) or mouse embryos (17d gestation) is rinsed with calcium/magnesium-free Hanks buffered saline solution and resuspended in 5.0 ml 0.125% trypsin and 0.5 mM EDTA at 37° C. […] Trypsin is quenched and the cells are plated at 1.5×10^6 cells/mL on polylysine coated plates and cultured at 37° C. in 5% CO2 in B27/Neurobasal medium (Gibco/BRL, Gaithersburg, Md.) containing 0.0015% fluorodeoxyuridine (FUDR), giving cultures that are >95% neuronal. For the Aβ sandwich ELISA, Nunc-Immuno Plates (Nunc A/S, Roskilde, Denmark) were coated overnight using 4° C. using antibodies specific for Aβ40 or Aβ42 in 100 mM bicarbonate buffer, pH 9.6. […] Immediately prior to being loaded on the ELISA, 1 ml of the brain homogenate was extracted in diethylamine (Sigma, St. Lousi, Minn.) by adding an equal volume of 0.4% DEA in 100 mM NaCl, re-homogenized and centrifuged for 1 hour at 100,000×g. […] Alternatively, conditioned media collected from cells was loaded neat and 1:2. Aβ-40 and Aβ-42 peptide standards were purchased from American Peptide Co. (Sunnyvale, Calif.), stored at −70° C., and diluted in EC buffer immediately prior to use. ELISA plates were incubated overnight with 4° C. with samples and standards. Aβ was detected by incubating for 4 hours at room temperature with an HRP-conjugated anti-Aβ antibody in 20 mM Na phosphate, 2 mM EDTA, 400 mM Nacl, 1.0% BSA. ELISA plates were developed using a color reaction (ABTS Peroxide Substrate System, Kirkegaard & Perry, Gaithersburg, Md.) and the OD450 read.

[7] = 10 mM inhibitor (leucine and histidine 10 mM each), four hours metabolic labeling, growth medium, FIG. 10A top panel
[8] = 10 mM inhibitor, C-terminal antibody, FIG. 10A bottom panel
[9] = six hours incubation, ELISA, FIG. 11

SMILES | amount of Aβ secreted [1, 7] | amount of full-length APP immunoprecipitated from cell lysates [1, 8] | Aβ generation (autoradiograph) ([1]; figure legend FIG. 10A, neuroblastoma cells, both lines shown) | amount of Aβ secreted [2, 7] | amount of full-length APP immunoprecipitated from cell lysates [2, 8] | decrease of Aβ1-40 in conditioned medium ([3]; 5 mM 3MA, ELISA, FIG. 10B) | decrease of Aβ1-42 in conditioned medium ([3]; 5 mM 3MA, ELISA, FIG. 10B) | Aβ secretion into the growth media (ELISA) ([3]; figure legend FIG. 10B, N2a cells, both lines shown) | decrease of Aβ1-40 in conditioned medium [4] | decrease of Aβ1-42 in conditioned medium [4] | increase in tau protein levels ([5]; 3MA-treated, concentration not given) | tau protein levels (Western blot) [5] | Aβ secretion into the media ([6]; figure legend FIG. 11) | reduction of Aβ40 secreted into the media [6, 9] | reduction of Aβ42 secreted into the media [6, 9] | increase in tau protein levels ([5]; vinblastine 50 μM)
Cn1cnc(N)c2ncnc1-2 [3MA, 3-methyladenine] | reduced | did not affect | decreased | reduced | did not affect | ≥ 20% | ≥ 20% | decreased | ≥ 20% | ≥ 20% | approximately 2 times | increased | reduction | approximately 20% | approximately 20% | –
CC[C@]1(O)C[C@@H]2CN(CCc3c([nH]c4ccccc34)[C@@](C(=O)OC)(c3cc4c(cc3OC)N(C)[C@H]3[C@@](O)(C(=O)OC)[C@H](OC(C)=O)[C@]5(CC)C=CCN6CC[C@]43[C@@H]65)C2)C1 [vinblastine] | – | – | – | – | – | – | – | – | – | – | – | increased | – | – | – | ~2.5 times
